Test results from patent US20050191735A1, “Oxidoreductase” (priority 2003, published 2005).

Columns and labels:
[1] = tested on: recombinant Lactobacillus reuteri oxidoreductase; test: Substrate spectrum in standard measurement mixture; format: biochemical; conditions: reduction with NADPH; activity with ethyl 2-oxo-4-phenylbutyrate set to 100%
[2] = tested on: L. reuteri oxidoreductase; test: Preparative conversion, coenzyme regeneration with Thermoanerobium brockii ADH; format: biochemical, Lactobacillus reuteri; conditions: 4 ml substrate, 1 000 units oxidoreductase, room temperature, after 24 h
Procedure: For a preparative approach, a mixture of 4 ml of potassium phosphate buffer 100 mM, pH=7.0, 2 ml of isopropanol, 4 ml of ethyl 2-oxo-4-phenylbutyrate, 0.064 mg of NADP, 1 000 units of L. reuteri oxidoreductase and 10 mg of Thermoanerobium brockii ADH (Fluka, approximately 100 U, based on oxidation of 2-propanol) was incubated at room temperature with constant mixing for 24 h. […] 97% of the product was the corresponding S-alcohol.

[3] = tested on: L. reuteri oxidoreductase; test: Preparative conversion, coenzyme regeneration with KRED 1004; format: biochemical, Lactobacillus reuteri; conditions: 4 ml substrate, 1 000 units oxidoreductase, 1 mg KRED 1004, room temperature, after 2 h
Procedure: For a preparative approach, a mixture of 4 ml of potassium phosphate buffer 100 mM, pH=7.0, 2 ml of isopropanol, 4 ml of ethyl 2-oxo-4-phenylbutyrate, 0.064 mg of NADP, 1 000 units of L. reuteri oxidoreductase and 1 mg of KRED 1004 (Biocatalytics Inc, Pasadena) was incubated at room temperature with constant mixing for 2 h. […] 98% of the product was the corresponding S-alcohol.

SMILES: CCOC(=O)C(=O)CCc1ccccc1 [Ethyl 2-oxo-4-phenyl-butyrate]
- Relative activity % [1]: 100%
- conversion to ethyl 2-hydroxy-4-phenylbutyrate [2]: completely converted
- conversion to ethyl 2-hydroxy-4-phenylbutyrate [3]: completely converted
